Converted amounts (≈) assume the structure as drawn.
Tests used:
Type in all cases: functional
[1] = system: Staphylococcus aureus; experiment: Antibacterial activity against Staphylococcus aureus Smith OC4172
[2] = system: Haemophilus influenzae; experiment: Antibacterial activity against Haemophilus influenzae OC4882
[3] = system: Streptococcus pneumoniae; experiment: Antibacterial activity against erythromycin-susceptible Streptococcus pneumoniae ATCC 6301
[4] = system: Staphylococcus aureus; experiment: Antibacterial activity against Staphylococcus aureus Smith OC4172 in presence of 50% mouse serum
[5] = system: Streptococcus pneumoniae; experiment: Antibacterial activity against erythromycin-resistant Streptococcus pneumoniae OC4051
[6] = system: Streptococcus pneumoniae; experiment: Antibacterial activity against erythromycin-resistant Streptococcus pneumoniae OC4421

| Structure (SMILES) | MIC [1] | MIC [2] | MIC [3] | MIC [4] | MIC [5] | MIC [6] |
| --- | --- | --- | --- | --- | --- | --- |
| CC[C@H]1OC(=O)[C@H](C)C(=O)[C@H](C)[C@@H](O[C@@H]2O[C@H](C)C[C@H](N(C)C)[C@H]2O)[C@](C)(OC(=O)NCc2ccc(-c3ccccn3)cc2)C[C@@H](C)C(=O)[C@H](C)[C@H]2CC(=O)O[C@@]21C | 1 µg/mL (≈ 1.24 µM) | 16 µg/mL (≈ 19.8 µM) | 0.03 µg/mL (≈ 0.0371 µM) | 8 µg/mL | 0.25 µg/mL (≈ 0.309 µM) | 0.5 µg/mL (≈ 0.619 µM) |
| CC[C@H]1OC(=O)[C@H](C)C(=O)[C@H](C)[C@@H](O[C@@H]2O[C@H](C)C[C@H](N(C)C)[C@H]2O)[C@](C)(OC(=O)NC/C=C/c2cccnc2)C[C@@H](C)C(=O)[C@H](C)[C@H]2CC(=O)O[C@@]21C | 1 µg/mL (≈ 1.32 µM) | 4 µg/mL (≈ 5.28 µM) | 0.03 µg/mL (≈ 0.0396 µM) | 1 µg/mL | 2 µg/mL (≈ 2.64 µM) | 0.5 µg/mL (≈ 0.66 µM) |
| CC[C@H]1OC(=O)[C@H](C)[C@@H](O[C@H]2C[C@@](C)(OC)[C@@H](O)[C@H](C)O2)[C@H](C)[C@@H](O[C@@H]2O[C@H](C)C[C@H](N(C)C)[C@H]2O)[C@](C)(O)C[C@@H](C)C(=O)[C@H](C)[C@@H](O)[C@]1(C)O [ERYTHROMYCIN] | 0.5 µg/mL (≈ 0.681 µM) | 8 µg/mL (≈ 10.9 µM) | 0.06 µg/mL (≈ 0.0818 µM) | 0.12 µg/mL | > 16 µg/mL | 4 µg/mL (≈ 5.45 µM) |
| CC[C@H]1OC(=O)[C@H](C)C(=O)[C@H](C)[C@@H](O[C@@H]2O[C@H](C)C[C@H](N(C)C)[C@H]2O)[C@](C)(OC(=O)NC/C=C/c2ccc3nccnc3c2)C[C@@H](C)C(=O)[C@H](C)[C@H]2CC(=O)O[C@@]21C | 0.5 µg/mL (≈ 0.618 µM) | 4 µg/mL (≈ 4.94 µM) | 0.03 µg/mL (≈ 0.0371 µM) | 2 µg/mL | 0.25 µg/mL (≈ 0.309 µM) | 0.5 µg/mL (≈ 0.618 µM) |
| CC[C@H]1OC(=O)[C@H](C)C(=O)[C@H](C)[C@@H](O[C@@H]2O[C@H](C)C[C@H](N(C)C)[C@H]2O)[C@](C)(OC(=O)NC/C=C/c2ccc(-c3ccccn3)cc2)C[C@@H](C)C(=O)[C@H](C)[C@H]2CC(=O)O[C@@]21C | 0.5 µg/mL (≈ 0.6 µM) | 8 µg/mL (≈ 9.59 µM) | 0.06 µg/mL (≈ 0.0719 µM) | 2 µg/mL | 0.25 µg/mL (≈ 0.3 µM) | 0.5 µg/mL (≈ 0.6 µM) |
| CC[C@H]1OC(=O)[C@H](C)C(=O)[C@H](C)[C@@H](O[C@@H]2O[C@H](C)C[C@H](N(C)C)[C@H]2O)[C@](C)(OC)C[C@@H](C)C(=O)[C@H](C)[C@H]2N(CCCCn3cnc(-c4cccnc4)c3)C(=O)O[C@]12C [TELITHROMYCIN] | 0.12 µg/mL (≈ 0.148 µM) | 2 µg/mL (≈ 2.46 µM) | 0.015 µg/mL (≈ 0.0185 µM) | 0.5 µg/mL | 0.06 µg/mL (≈ 0.0739 µM) | 0.12 µg/mL (≈ 0.148 µM) |
| CC[C@H]1OC(=O)[C@H](C)C(=O)[C@H](C)[C@@H](O[C@@H]2O[C@H](C)C[C@H](N(C)C)[C@H]2O)[C@](C)(OC(=O)NCc2cnc3ccccc3c2)C[C@@H](C)C(=O)[C@H](C)[C@H]2CC(=O)O[C@@]21C | 0.5 µg/mL (≈ 0.639 µM) | 8 µg/mL (≈ 10.2 µM) | 0.06 µg/mL (≈ 0.0767 µM) | 4 µg/mL | 0.5 µg/mL (≈ 0.639 µM) | 0.5 µg/mL (≈ 0.639 µM) |
| CC[C@H]1OC(=O)[C@H](C)C(=O)[C@H](C)[C@@H](O[C@@H]2O[C@H](C)C[C@H](N(C)C)[C@H]2O)[C@](C)(OC(=O)NC/C=C/c2ccc(-c3ncccn3)cc2)C[C@@H](C)C(=O)[C@H](C)[C@H]2NC(=O)O[C@@]21C | 0.12 µg/mL (≈ 0.144 µM) | 4 µg/mL (≈ 4.78 µM) | 0.03 µg/mL (≈ 0.0359 µM) | 0.25 µg/mL | 0.06 µg/mL (≈ 0.0718 µM) | 0.06 µg/mL (≈ 0.0718 µM) |
| CC[C@H]1OC(=O)[C@H](C)C(=O)[C@H](C)[C@@H](O[C@@H]2O[C@H](C)C[C@H](N(C)C)[C@H]2O)[C@](C)(OC(=O)NC/C=C/c2cnc3ccccc3c2)C[C@@H](C)C(=O)[C@H](C)[C@H]2CC(=O)O[C@@]21C | 0.5 µg/mL (≈ 0.619 µM) | 8 µg/mL (≈ 9.9 µM) | ≤ 0.015 µg/mL | 2 µg/mL | 0.12 µg/mL (≈ 0.149 µM) | 0.25 µg/mL (≈ 0.309 µM) |
| CC[C@H]1OC(=O)[C@H](C)C(=O)[C@H](C)[C@@H](O[C@@H]2O[C@H](C)C[C@H](N(C)C)[C@H]2O)[C@](C)(OC(=O)NC/C=C/c2ccc3ncccc3c2)C[C@@H](C)C(=O)[C@H](C)[C@H]2CC(=O)O[C@@]21C | 0.5 µg/mL (≈ 0.619 µM) | 2 µg/mL (≈ 2.48 µM) | 0.03 µg/mL (≈ 0.0371 µM) | 2 µg/mL | 0.12 µg/mL (≈ 0.149 µM) | 0.25 µg/mL (≈ 0.309 µM) |
| CC[C@H]1OC(=O)[C@H](C)C(=O)[C@H](C)[C@@H](O[C@@H]2O[C@H](C)C[C@H](N(C)C)[C@H]2O)[C@](C)(OC(=O)NCc2ccc3ncccc3c2)C[C@@H](C)C(=O)[C@H](C)[C@H]2CC(=O)O[C@@]21C | 1 µg/mL (≈ 1.28 µM) | 8 µg/mL (≈ 10.2 µM) | 0.06 µg/mL (≈ 0.0767 µM) | 4 µg/mL | 2 µg/mL (≈ 2.56 µM) | 0.5 µg/mL (≈ 0.639 µM) |
| CC[C@H]1OC(=O)[C@H](C)C(=O)[C@H](C)[C@@H](O[C@@H]2O[C@H](C)C[C@H](N(C)C)[C@H]2O)[C@](C)(OC(=O)NC/C=C/c2cccc(-c3ncccn3)c2)C[C@@H](C)C(=O)[C@H](C)[C@H]2CC(=O)O[C@@]21C | 0.5 µg/mL (≈ 0.599 µM) | 4 µg/mL (≈ 4.79 µM) | 0.06 µg/mL (≈ 0.0719 µM) | 2 µg/mL | 0.25 µg/mL (≈ 0.299 µM) | 0.5 µg/mL (≈ 0.599 µM) |
| CC[C@H]1OC(=O)[C@H](C)C(=O)[C@H](C)[C@@H](O[C@@H]2O[C@H](C)C[C@H](N(C)C)[C@H]2O)[C@](C)(OC(=O)NC/C=C/c2ccc(-c3ncccn3)cc2)C[C@@H](C)C(=O)[C@@H](C)[C@H]2CC(=O)O[C@@]21C | 2 µg/mL (≈ 2.4 µM) | 8 µg/mL (≈ 9.58 µM) | 0.12 µg/mL (≈ 0.144 µM) | 16 µg/mL | 2 µg/mL (≈ 2.4 µM) | 1 µg/mL (≈ 1.2 µM) |
| CC[C@H]1OC(=O)[C@H](C)C(=O)[C@H](C)[C@@H](O[C@@H]2O[C@H](C)C[C@H](N(C)C)[C@H]2O)[C@](C)(OC(=O)NC/C=C/c2ccc(-c3ccccc3)nc2)C[C@@H](C)C(=O)[C@H](C)[C@H]2CC(=O)O[C@@]21C | 0.5 µg/mL (≈ 0.6 µM) | 8 µg/mL (≈ 9.59 µM) |  | 2 µg/mL | 0.5 µg/mL (≈ 0.6 µM) | 0.5 µg/mL (≈ 0.6 µM) |
| CC[C@H]1OC(=O)[C@H](C)C(=O)[C@H](C)[C@@H](O[C@@H]2O[C@H](C)C[C@H](N(C)C)[C@H]2O)[C@](C)(OC(=O)NC/C=C/c2ccc(-c3ncccn3)cc2)C[C@@H](C)C(=O)[C@H](C)[C@H]2CC(=O)O[C@@]21C | 0.12 µg/mL (≈ 0.144 µM) | 8 µg/mL (≈ 9.58 µM) | 0.03 µg/mL (≈ 0.0359 µM) | 0.5 µg/mL | 0.06 µg/mL (≈ 0.0719 µM) | 0.25 µg/mL (≈ 0.299 µM) |
| CC[C@H]1OC(=O)[C@H](C)C(=O)[C@H](C)[C@@H](O[C@@H]2O[C@H](C)C[C@H](N(C)C)[C@H]2O)[C@](C)(OC(=O)NC/C=C/c2cncc3ccccc23)C[C@@H](C)C(=O)[C@H](C)[C@H]2CC(=O)O[C@@]21C | 0.5 µg/mL (≈ 0.619 µM) | 4 µg/mL (≈ 4.95 µM) | ≤ 0.015 µg/mL | 4 µg/mL | 0.25 µg/mL (≈ 0.309 µM) | 0.25 µg/mL (≈ 0.309 µM) |
| CC[C@H]1OC(=O)[C@H](C)C(=O)[C@H](C)[C@@H](O[C@@H]2O[C@H](C)C[C@H](N(C)C)[C@H]2O)[C@](C)(OC(=O)NC/C=C/c2ccc3cccnc3c2)C[C@@H](C)C(=O)[C@H](C)[C@H]2CC(=O)O[C@@]21C | 0.25 µg/mL (≈ 0.309 µM) | 2 µg/mL (≈ 2.48 µM) | 0.03 µg/mL (≈ 0.0371 µM) | 4 µg/mL | 0.12 µg/mL (≈ 0.149 µM) | 0.25 µg/mL (≈ 0.309 µM) |

From ChEMBL document CHEMBL1146921, “Synthesis and antibacterial activity of 6-O-heteroarylcarbamoyl-11,12-lactoketolides” (2006)
